PubChem BioAssay (NCI)
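Tested at 5 concentrations; 48 h exposure; 96-well plates; endpoints linearly interpolated, else capped at highest concentration. GI50 is the concentration that inhibits growth by half. TGI is the concentration that stops growth completely.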

Legend:
Experiment in all cases: growth of human tumour cells (NCI), 48 h
OVCAR-5 ovarian = test system: OVCAR-5 ovarian
UACC-257 melanoma = test system: UACC-257 melanoma
SNB-19 CNS = test system: SNB-19 CNS
SN12C renal = test system: SN12C renal
EKVX NSCLC = test system: EKVX NSCLC
HT29 colon = test system: HT29 colon
SK-MEL-5 melanoma = test system: SK-MEL-5 melanoma
SF-539 CNS = test system: SF-539 CNS
MALME-3M melanoma = test system: MALME-3M melanoma
HCT-116 colon = test system: HCT-116 colon

Structure (SMILES) | TGI (OVCAR-5 ovarian) | TGI (UACC-257 melanoma) | TGI (SNB-19 CNS) | TGI (SN12C renal) | TGI (EKVX NSCLC) | TGI (HT29 colon) | TGI (SK-MEL-5 melanoma) | TGI (SF-539 CNS) | TGI (MALME-3M melanoma) | TGI (HCT-116 colon) | GI50 (OVCAR-5 ovarian) | GI50 (UACC-257 melanoma) | GI50 (SNB-19 CNS) | GI50 (SN12C renal) | GI50 (EKVX NSCLC) | GI50 (HT29 colon) | GI50 (SK-MEL-5 melanoma) | GI50 (SF-539 CNS) | GI50 (MALME-3M melanoma) | GI50 (HCT-116 colon)
Cc1ccc(N2C(=O)C3C=CC(n4[nH]c(=O)n(Cc5ccccc5)c4=O)CC3C2=O)cc1 (stereo not given) | > 100 µM | > 100 µM | > 100 µM | > 100 µM | > 100 µM | > 100 µM | > 100 µM | > 100 µM | > 100 µM | > 100 µM | – | – | – | – | – | – | – | – | – | –
CS[C@]12C(=O)C[C@@]3(C)[C@@H](CC[C@]3(O)C(=O)CO)[C@@H]1CCC1=CC(=O)CC[C@@]12C | > 100 µM | > 100 µM | > 100 µM | > 100 µM | > 100 µM | > 100 µM | > 100 µM | > 100 µM | > 100 µM | > 100 µM | – | – | – | – | – | – | – | – | – | –
C[C@]12CC[C@H]3[C@@H](CC[C@]4(O)C[C@@H](O)CC[C@]34/C=N/O)[C@@]1(O)CC[C@@H]2C1=COC(=O)C1 | 0.998 µM | 1.62 µM | 2.05 µM | 1.24 µM | 0.344 µM | 0.594 µM | 0.241 µM | 0.221 µM | 1.09 µM | 0.165 µM | – | – | – | – | – | – | – | – | – | –
CC(=O)C1C(=O)C(=O)N(c2ccccc2C(C)C)C1=O (stereo not given) | > 100 µM | > 100 µM | > 100 µM | > 100 µM | > 100 µM | > 100 µM | > 100 µM | > 100 µM | > 100 µM | > 100 µM | – | – | – | – | – | – | – | – | – | –
COc1ccc(OC)c2c1C(=O)C1CC1(Br)C2=O (stereo not given) | > 100 µM | > 100 µM | > 100 µM | > 100 µM | > 100 µM | > 100 µM | > 100 µM | > 100 µM | > 100 µM | > 100 µM | – | – | – | – | – | – | – | – | – | –
O=C1c2ccccc2-c2c1c1ccccc1c(=O)n2CCN1CCOCC1 | > 100 µM | > 100 µM | > 100 µM | > 100 µM | > 100 µM | > 100 µM | > 100 µM | > 100 µM | > 100 µM | > 100 µM | > 100 µM | > 100 µM | > 100 µM | 94.1 µM | 98.8 µM | 57.8 µM | 49 µM | 84.9 µM | > 100 µM | 36 µM
C/C=C(\C)C(=O)O[C@H]1C=CC(=O)O[C@@H]1CC[C@H](O)[C@H](C)O | > 100 µM | > 100 µM | > 100 µM | > 100 µM | > 100 µM | 97.5 µM | 75.2 µM | > 100 µM | 70.6 µM | 67.2 µM | > 100 µM | 80.9 µM | 98.9 µM | 47 µM | 73.9 µM | 30.6 µM | 25.4 µM | 30.9 µM | 29.3 µM | 21.4 µM
Nc1nc(Nc2ccc(C3CCC(N4CCOCC4)CC3)cc2)nn1-c1ccccn1 (stereo not given) | > 100 µM | 12.2 µM | > 100 µM | > 100 µM | > 100 µM | > 100 µM | > 88.3 µM | 4.99 µM | > 46 µM | 20.7 µM | 4.17 µM | 3.43 µM | 7.38 µM | 2.4 µM | 8.21 µM | 3.11 µM | 20.8 µM | 1.42 µM | 5.58 µM | 2.92 µM
O=C(/C=C/c1ccc([N+](=O)[O-])cc1)c1ccc2c3c(cccc13)CC2 | > 100 µM | > 94.4 µM | 17.4 µM | > 100 µM | > 100 µM | > 100 µM | > 100 µM | 7.72 µM | > 100 µM | 25.7 µM | > 64.2 µM | > 46 µM | 3.36 µM | > 34.6 µM | 62.9 µM | 5.05 µM | 33.2 µM | 2.63 µM | > 64.2 µM | 4.33 µM
O=C(Nc1ccc(Cl)cc1)Nc1ccc(Nc2nncc3ccccc23)cc1 | 34.3 µM | 10.8 µM | 19 µM | 37.2 µM | 25.3 µM | 14.1 µM | 6.82 µM | 11.5 µM | 16.5 µM | 12 µM | 4.15 µM | 3.41 µM | 3.67 µM | 4.58 µM | 2.95 µM | 2.65 µM | 2.31 µM | 2.88 µM | 3.94 µM | 2.46 µM
CC[C@H](CO)Nc1nc(NCc2ccccc2)n2ncc(C(C)C)c2n1 | 15 µM | 15 µM | 12.3 µM | 14.4 µM | 9.13 µM | 15.5 µM | 4.96 µM | 3.62 µM | 6.99 µM | 15 µM | 1.85 µM | 3.56 µM | 1.44 µM | 2.41 µM | 2.41 µM | 2 µM | 1.78 µM | 1.22 µM | 2.6 µM | 0.51 µM
Cc1cc(Cl)ccc1NC(=O)CC/C(CC(=O)C(C)C)=N\NC(=O)C[n+]1ccccc1 | > 100 µM | > 100 µM | > 100 µM | > 100 µM | > 100 µM | > 100 µM | > 100 µM | > 100 µM | > 100 µM | > 100 µM | – | – | – | – | – | – | – | – | – | –
COC(=O)CCC(NC(=S)N/N=C/c1ccco1)C(=O)OC (stereo not given) | > 100 µM | > 100 µM | > 100 µM | > 100 µM | > 100 µM | > 100 µM | > 100 µM | > 100 µM | > 100 µM | > 100 µM | – | – | – | – | – | – | – | – | – | –
C[CH2][Sn]([CH2]C)([O]C(=O)C(OC(C)=O)c1ccccc1)[O]C(=O)C(OC(C)=O)c1ccccc1 (stereo not given) | > 100 µM | 33.4 µM | > 100 µM | > 100 µM | > 100 µM | > 100 µM | > 100 µM | 33 µM | 33.5 µM | > 100 µM | 41.2 µM | 16.7 µM | 52 µM | > 100 µM | > 100 µM | 46.7 µM | 68.1 µM | 17.5 µM | 18.4 µM | 92.6 µM
COc1c2c(nc3ccccc13)-c1cc3c(c(=O)n1C2)COC(=O)C3(O)CC(=O)N1CCOCC1 (stereo not given) | 63.1 µM | 98.4 µM | 83.6 µM | 25.4 µM | > 93.6 µM | 68 µM | 23 µM | 5.8 µM | > 100 µM | 38.5 µM | – | – | – | – | – | – | – | – | – | –
